# Reference: ChEMBL document CHEMBL4765408, “Design and synthesis of benzylidenecyclohexenones as TrxR inhibitors displaying high anticancer activity and inducing ROS, apoptosis, and autophagy” (Eur J Med Chem, 2020)
# pIC50: −log10 of the molar value. The source made the active and inactive calls. The calls are words filed in the database; no cut-off is given here.
# Key:
# [1] = system: MDA-MB-231; assay: Antiproliferative activity against human MDA-MB-231 cells after 72 hrs by sulforhodamine B assay; format: functional, cell-based; settings: MDA-MB-231, 72 h
# [2] = system: KB; assay: Antiproliferative activity against human KB cells after 72 hrs by sulforhodamine B assay; format: functional, cell-based
# [3] = system: MCF7; assay: Antiproliferative activity against human MCF7 cells after 72 hrs by sulforhodamine B assay; format: functional, cell-based; settings: MCF7, 72 h
# [4] = Antiproliferative activity against human KB-VIN cells after 72 hrs by sulforhodamine B assay; format: functional, cell-based; settings: KBVIN
# [5] = system: A549; assay: Antiproliferative activity against human A549 cells after 72 hrs by sulforhodamine B assay; format: functional, cell-based; settings: A549, 72 h
# [6] = system: MDA-MB-231; assay: Down regulation of TrxR1 expression in human MDA-MB-231 cells at 1.8 uM measured after 72 hrs by Western blot analysis; format: functional, cell-based
# [7] = system: MDA-MB-231; assay: Induction of apoptosis in human MDA-MB-231 cells assessed as activation of caspase-3 cleavage at 1.8 uM measured after 72 hrs by Western blot analysis; format: functional, cell-based
# [8] = system: MDA-MB-231; assay: Antitumor activity against human MDA-MB-231 cells xenografted in BALB/c nude mouse assessed as reduction in tumor weight at 10 mg/kg, ip measured at 2 days interval for 21 days relative to control; format: functional; parameters: scale not given: the % may be the effect or the level left; settings: time 2 day
# [9] = system: MDA-MB-231; assay: Induction of reactive oxygen species generation in human MDA-MB-231 cells measured after 24 hrs by DCFH-DA probe based flow cytometry; format: functional, cell-based
# [10] = system: MDA-MB-231; assay: Induction of apoptosis in human MDA-MB-231 cells at 1.8 uM measured after 72 hrs by APC-Annexin V/7-AAD staining based flow cytometry relative to control; format: functional
# [11] = system: MDA-MB-231; assay: Induction of autophagy in human MDA-MB-231 cells transfected with mRFP-eGFP-LC3 assessed as increase in LC3-II expression at 1.8 uM measured after 72 hrs by Western blot analysis; format: functional, cell-based
# [12] = species on record: Rattus norvegicus; assay: Inhibition of purified rat liver TrxR measured after 75 mins in presence of NADPH by DTNB based assay
# [13] = Inhibition of TrxR in human MDA-MB-231 cells measured after 72 hrs by colorimetric method; format: cell-based
# [14] = system: MDA-MB-231; assay: Induction of autophagy in human MDA-MB-231 cells transfected with mRFP-eGFP-LC3 assessed as accumulation of autophagosomes by measuring increase in […] fluorescence at 1.8 uM measured after 24 hrs by confocal laser scanning microscopy; format: functional, cell-based
# [15] = system: MDA-MB-231; assay: Induction of autophagy in human MDA-MB-231 cells transfected with mRFP-eGFP-LC3 assessed as accumulation of autolysosome by measuring increase in red fluorescence at 1.8 uM measured after 24 hrs by confocal laser scanning microscopy; format: functional, cell-based
pIC50 [1],pIC50 [2],pIC50 [3],pIC50 [5],inhibition [12],pIC50 [13],Structure (SMILES),pIC50 [4],Activity [6],Activity [7],Activity [8] [%],Activity [9],Activity [10],Activity [11],Activity [14],Activity [15]
5.79,5.82,5.66,5.81,,,COc1cc(/C=C2\CCC=CC2=O)cc(OC)c1O,5.51,,,,,,,,
4.63,,< 4.60,4.65,,,COc1cc(/C=C2\CN(S(=O)(=O)c3ccccc3)C=CC2=O)cc(OC)c1OC,,,,,,,,,
5.43,5.78,5.36,5.49,Active,5.82,COc1cc(/C=C/C(=O)N2CCC=CC2=O)cc(OC)c1OC [PIPLARTINE],5.11,Active,Active,44.9,Active,Active,Active,Active,Active
4.62,,< 4.60,4.67,,,COc1cc(/C=C2\CN(C(=O)OCc3ccccc3)C=CC2=O)cc(OC)c1OC,,,,,,,,,
6.17,5.44,5.27,5.31,,,COc1cc(/C=C2\CCC=C(I)C2=O)cc(OC)c1OC,5.27,,,,,,,,
6.17,6.06,5.28,5.37,,6.96,COc1cc(/C=C2\CCC=CC2=O)cc(OC)c1OC,5.32,,,,Active,,,,

# More lines, now with the values behind:
Structure (SMILES),pIC50 [1],pIC50 [2],pIC50 [3],pIC50 [5],inhibition [12],pIC50 [13],pIC50 [4],Activity [6],Activity [7],Activity [8] [%],Activity [9],Activity [10],Activity [11],Activity [14],Activity [15]
COc1ccc(/C=C2\CCC=CC2=O)cc1,5.79,5.81,5.59,5.84,,,5.53,,,,,,,,
COc1cccc(/C=C2\CCC=CC2=O)c1,5.97,5.81,5.69,5.83,,,5.59,,,,,,,,
O=C1C=CCC/C1=C\c1ccccc1OC(F)(F)F,6.00,,,,,,,,,,,,,,
COc1ccc(/C=C2\CCC=CC2=O)cc1OC,6.19,6.05,5.28,5.33,,,5.27,,,,,,,,
CC(=O)n1cc(/C=C2\CCC=CC2=O)c2ccccc21,6.03,5.35,5.26,5.32,,,5.30,,,,,,,,
O=C1C=CCC/C1=C\c1ccc(-c2ccccc2)cc1,6.17,5.63,5.30,5.44,,,5.32,,,,,,,,
Cn1cc(/C=C2\CCC=CC2=O)c2ccccc21,5.47,5.35,5.22,5.31,,,5.30,,,,,,,,
COc1cc(OC)c(/C=C2\CCC=CC2=O)c(OC)c1,5.29,5.24,5.04,5.33,,,5.19,,,,,,,,
